Experimental findings from patent US20260184663A1, “INDENE COMPOUNDS, PHARMACEUTICAL COMPOSITIONS THEREOF, AND THEIR THERAPEUTIC APPLICATIONS” (NucMito Pharmaceuticals co. Ltd., priority 2022, published 2026) are described below.

Common to all, as to format: cell-based
The test system of assay [1] is A549 (lung adenocarcinoma). Description: Antiproliferative activity (CCK-8 cell viability), A549. Conditions: Homo sapiens, 72 h; for inhibition at 3.3 µM: Compound concentration: 3.3 μM; for inhibition at 10 µM: Compound concentration: 10 μM; for inhibition at 30 µM: Compound concentration: 30 μM. The method in brief:
(§1)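 Growth inhibition graded in bands from percent viability against DMSO vehicle, read as CCK-8 absorbance at 450 nm. Compound tested at 3.3, 10 or 30 μM for 72 h, 37 °C; media contained 10% FBS: DMEM for HepG2/SW480, MEM for HeLa, F-12K for A549.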

Assay [2] deals with A431 (epidermoid carcinoma). Description: Antiproliferative activity (CCK-8 cell viability), A431. Conditions: Homo sapiens, 72 h; for inhibition at 3.3 µM: A-431, Compound concentration: 3.3 μM; for inhibition at 10 µM: A-431, Compound concentration: 10 μM; for inhibition at 30 µM: A-431, Compound concentration: 30 μM. The method in brief:
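This growth inhibition assay used A431 cells maintained in Dulbecco's modified Eagle's medium plus 10% fetal bovine serum. Cells were seeded in 96-well plates, treated with compound for 72 h at 37° C., and then given 10 μL CCK-8 solution. After a further 4 h, absorbance was read at 450 nm.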

Another assay deals with HeLa (cervical cancer). The experiment in a line: Antiproliferative activity (CCK-8 cell viability), HeLa. Conditions: Homo sapiens, 72 h, read-out: Antiproliferative activity in cancerous cells, HELA (inhibition of cell growth); for inhibition at 3.3 µM: Compound concentration: 3.3 μM; for inhibition at 10 µM: Compound concentration: 10 μM. In a few lines: as §1
For another assay, the system named is HepG2 (liver cancer). The experiment in a line: Antiproliferative activity (CCK-8 cell viability), HepG2. The note with it: Homo sapiens, 72 h, read-out: Antiproliferative activity in cancerous cells, HepG2 (inhibition of cell growth); for inhibition at 3.3 µM: Compound concentration: 3.3 μM; for inhibition at 10 µM: Compound concentration: 10 μM. In a few lines:
as §1

The next assay has as its system SW480 (colon cancer). The experiment in a line: Antiproliferative activity (CCK-8 cell viability), SW480. Conditions: Homo sapiens, 72 h; for inhibition at 3.3 µM: Compound concentration: 3.3 μM; for inhibition at 10 µM: Compound concentration: 10 μM; for inhibition at 30 µM: Compound concentration: 30 μM. In a few lines:
as §1

Assay [3] has as its system MDA-MB-231 (breast cancer). Description: Antiproliferative activity (CCK-8 cell viability), MDA-MB-231. Conditions: Homo sapiens, 72 h; for inhibition at 3.3 µM: Compound concentration: 3.3 μM; for inhibition at 10 µM: Compound concentration: 10 μM; for inhibition at 30 µM: Compound concentration: 30 μM. The method in brief:
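Growth inhibition of human MDA-MB-231 breast cancer cells was assessed with a Cell Counting Kit-8. Cells cultured in DMEM plus 10% FBS were seeded at 2,000-5,000 cells/well, treated after attachment, and kept 72 h at 37° C. CCK-8 solution (10 μL) was added for 4 h, and absorbance at 450 nm was compared with DMSO-treated controls.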

Assay [4] deals with B16F10 (malignant melanoma). The experiment in a line: Antiproliferative activity (CCK-8 cell viability), B16F10. Conditions: Mus musculus, 72 h, read-out: Antiproliferative activity in cancerous cells, B16F10 (inhibition of cell growth); for inhibition at 3.3 µM: B16-F10, Compound concentration: 3.3 μM; for inhibition at 10 µM: B16-F10, Compound concentration: 10 μM. In a few lines: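 Cell growth inhibition was measured in B16F10 malignant melanoma cells with a Cell Counting Kit-8 viability assay. Cells were maintained in DMEM plus 10% fetal bovine serum, seeded at 2,000-5,000 cells/well in 96-well plates, and treated for 72 h at 37° C. Viability was expressed relative to DMSO-treated vehicle control wells.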

[5] abbreviates: read-out: Antiproliferative activity in cancerous cells, A549 (inhibition of cell growth).
[6] abbreviates: read-out: Antiproliferative activity in cancerous cells, A431 (inhibition of cell growth).
[7] abbreviates: read-out: Antiproliferative activity in cancerous cells, SW480 (inhibition of cell growth).
Setting [8] is: read-out: Antiproliferative activity in cancerous cells, MDA-MB-231 (inhibition of cell growth).

Where two headings read alike, the source gives them in different places.

Take `CC1=C(CC(=O)O)c2cc(F)ccc2/C1=C/c1ccc(CO)cc1` [E40, (E)-2-(5-Fluoro-1-(4-(hydroxymethyl)benzylidene)-2-methyl-1H-inden-3-yl)acetic acid]: the inhibition at 3.3 µM (in assay [1] (setting [5]); in assay [2] (setting [6]); in the assay with HeLa (cervical cancer); in the assay on HepG2 (liver cancer); in the assay with SW480 (colon cancer) (setting [7]); in assay [3] (setting [8])) was less than 30% in each case. Moreover, the inhibition at 3.3 µM in assay [4] was less than 30%. In addition, the inhibition at 10 µM in assay [1] (setting [5]) is no less than 50%; in assay [2] (setting [6]), no less than 50%; in the assay on HeLa (cervical cancer), less than 30%; with HepG2 (liver cancer), less than 30%; in the assay on SW480 (colon cancer) (setting [7]) it was no less than 50%; in assay [3] (setting [8]) it was no less than 50%. Moreover, in assay [4], the inhibition at 10 µM is less than 30%. Moreover, the inhibition at 30 µM was no less than 50% in assay [1] (setting [5]); no less than 50% in assay [2] (setting [6]); no less than 50% in the assay with HeLa (cervical cancer) (Compound concentration: 30 μM); less than 30% with HepG2 (liver cancer) (Compound concentration: 30 μM); no less than 50% with SW480 (colon cancer) (setting [7]); no less than 50% in assay [3] (setting [8]). Further, in assay [4] (B16-F10, Compound concentration: 30 μM), the inhibition at 30 µM was 30 to 50%.
Consider `CC1=C(CC(=O)O)c2cc(F)ccc2/C1=C\c1ccc(CCCCc2ccc(F)cc2)cc1` [B116, (Z)-2-(5-Fluoro-1-(4-(4-(4-fluorophenyl)butyl)benzylidene)-2-methyl-1H-inden-3-yl)acetic acid], for which the inhibition at 3.3 µM in assay [1] (setting [5]) was 30 to 50%; in assay [2] (setting [6]) it was no less than 50%; in the assay with HeLa (cervical cancer), no less than 50%; with HepG2 (liver cancer) it was no less than 50%; in the assay with SW480 (colon cancer) (setting [7]), less than 30%; in assay [3] (setting [8]), less than 30%. In addition, in assay [4], the inhibition at 3.3 µM lay within 30 to 50%. Besides, the inhibition at 10 µM was no less than 50% in assay [1] (setting [5]); no less than 50% in assay [2] (setting [6]); no less than 50% in the assay on HeLa (cervical cancer); no less than 50% with HepG2 (liver cancer); no less than 50% in the assay with SW480 (colon cancer) (setting [7]); less than 30% in assay [3] (setting [8]). The inhibition at 10 µM in assay [4] lay in the range of 30 to 50%.
As for `CC1=C(CC(=O)O)c2cc(Cl)ccc2/C1=C\c1ccc(COc2ccc(F)cc2)cc1` [B57, (Z)-2-(5-Chloro-1-(4-((4-fluorophenoxy)methyl)benzylidene)-2-methyl-1H-inden-3-yl)acetic acid], the inhibition at 3.3 µM in assay [1] (setting [5]) was less than 30%; in assay [2] (setting [6]), 30 to 50%; in the assay on HeLa (cervical cancer) it was less than 30%; with HepG2 (liver cancer), less than 30%; in the assay with SW480 (colon cancer) (setting [7]), less than 30%; in assay [3] (setting [8]) it was less than 30%. For the same compound, in assay [4], the inhibition at 3.3 µM is no less than 50%. Moreover, the inhibition at 10 µM in assay [1] (setting [5]) is less than 30%; in assay [2] (setting [6]), 30 to 50%; in the assay with HeLa (cervical cancer), no less than 50%; in the assay with HepG2 (liver cancer), 30 to 50%; in the assay with SW480 (colon cancer) (setting [7]) it was less than 30%; in assay [3] (setting [8]) it was less than 30%. Also, the inhibition at 10 µM in assay [4] was in the range of 30 to 50%. Further, the inhibition at 30 µM in assay [1] (read-out: Antiproliferative activity in cancerous cells, A549) was less than 30%; in assay [2] (read-out: Antiproliferative activity in cancerous cells, A431), 30 to 50%; with SW480 (colon cancer) (read-out: Antiproliferative activity in cancerous cells, SW480) it was less than 30%; in assay [3] (read-out: Antiproliferative activity in cancerous cells, MDA-MB-231) it was less than 30%.
Regarding `CCc1ccc2c(c1)C(CC(=O)O)=C(C)/C2=C/c1cccc(COc2ccc(F)cc2)c1` [B71, (Z)-2-(5-Ethyl-1-(3-((4-fluorophenoxy)methyl)benzylidene)-2-methyl-1H-inden-3-yl)acetic acid], the inhibition at 3.3 µM is 30 to 50% in assay [1] (setting [5]); no less than 50% in assay [2] (setting [6]); less than 30% with HeLa (cervical cancer); less than 30% in the assay on HepG2 (liver cancer); less than 30% in the assay on SW480 (colon cancer) (setting [7]); less than 30% in assay [3] (setting [8]). In assay [4], the inhibition at 3.3 µM was less than 30%. For the same compound, the inhibition at 10 µM was no less than 50% in assay [1] (setting [5]); no less than 50% in assay [2] (setting [6]); no less than 50% in the assay on HeLa (cervical cancer); less than 30% in the assay on HepG2 (liver cancer); less than 30% in the assay on SW480 (colon cancer) (setting [7]); no less than 50% in assay [3] (setting [8]). For the same compound, in assay [4], the inhibition at 10 µM was no less than 50%.
With `CC1=C(CC(=O)O)c2cc(F)ccc2/C1=C\c1ccc(Oc2ccc(Cl)c(F)c2)cc1` [C56, (Z)-2-(1-(4-(4-Chloro-3-fluorophenoxy)benzylidene)-5-fluoro-2-methyl-1H-inden-3-yl)acetic acid], the inhibition at 3.3 µM in assay [1] (setting [5]) is less than 30%; in assay [2] (setting [6]), no less than 50%; in the assay with HeLa (cervical cancer), no less than 50%; with HepG2 (liver cancer) it was less than 30%; with SW480 (colon cancer) (setting [7]), less than 30%; in assay [3] (setting [8]) it was no less than 50%. In assay [4], the inhibition at 3.3 µM is no less than 50%. Further, the inhibition at 10 µM in assay [1] (setting [5]) is less than 30%; in assay [2] (setting [6]) it was no less than 50%; in the assay with HeLa (cervical cancer) it was no less than 50%; with HepG2 (liver cancer) it was less than 30%; in the assay with SW480 (colon cancer) (setting [7]), no less than 50%; in assay [3] (setting [8]), no less than 50%. Besides, in assay [4], the inhibition at 10 µM was no less than 50%.
`CC1=C(CC(=O)O)c2cc(F)ccc2/C1=C\c1ccc(CN(CCc2ccccc2)c2ccccc2)cc1` [B19, (Z)-2-(5-Fluoro-2-methyl-1-(4-((phenethyl(phenyl)amino)methyl)benzylidene)-1H-inden-3-yl)acetic acid]: the inhibition at 3.3 µM is no less than 50% in assay [1] (setting [5]); less than 30% in assay [2] (setting [6]); 30 to 50% with HeLa (cervical cancer); less than 30% with HepG2 (liver cancer); 30 to 50% in the assay with SW480 (colon cancer) (setting [7]); no less than 50% in assay [3] (setting [8]). Also, the inhibition at 3.3 µM in assay [4] is less than 30%. For the same compound, the inhibition at 10 µM (in assay [1] (setting [5]); in assay [2] (setting [6]); with HeLa (cervical cancer); in the assay on HepG2 (liver cancer); in the assay on SW480 (colon cancer) (setting [7]); in assay [3] (setting [8])) was no less than 50% in each case. Moreover, the inhibition at 10 µM in assay [4] is no less than 50%.
